Measurements taken from patent US20180185476A1, “METHODS AND PHARMACEUTICAL COMPOSITIONS FOR INHIBITING LYMPHOCYTE PROLIFERATION IN A SUBJECT IN NEED THEREOF” (INSERM (Institut National de la Sante et de la Recherche …, priority 2013, published 2018).
“Also recorded” adds a separate entry of the source.

How the values were obtained:
[1] = system: control T-cells; test: T-cell proliferation in response to CD3 activation (CellTrace violet dye dilution); assay type: cell-based, human; settings: nucleotide added to deazauridine-treated control T cells
Source text: Informed consent was obtained from donors, patients and families of patients. The study and protocols conform to the 1975 declaration of Helsinki as well as to local legislation and ethical guidelines. Genomic DNA extracted from peripheral blood cells was used for whole exome sequencing (Illumina) and sequencing of CTPS1. PBMCs were Ficoll-purified and activated with phytohemagglutinin (PHA) for 3 days, and then cultured in RPMI medium supplemented with 5% type AB human serum and IL-2 (100 UI/ml). T-cell blasts were restimulated with various mitogens and analyzed for memory and activation markers, calcium flux, cytokine secretions, apoptosis and TCR-CD3 signaling cascade molecules by immunoblotting. CTPS1 protein was detected by immunoblotting with an antibody raised against residues in the middle of the protein (341 to 355) (#SAB111071, Sigma). […] Proliferation was assessed after 96 hours by monitoring the dilution of CellTrace violet dye labelling. Cell cycle was determined by measuring the incorporation of EdU into newly synthesized DNA during 40 hours. The division indexes were calculated with the Flowjo software (BD Biosciences). […] In long-term expansions, cells were repeatedly stimulated with CD3/CD28-coated beads every 48 h and the transduced GFP^+ cells in the cultures were determined by every 24 h. […]

[2] = system: CTPS1-deficient cells; test: Proliferation and CD25 expression of CTPS1-deficient T cells after addition of nucleotides or nucleosides; assay type: cell-based, human; settings: addition of nucleotides or nucleosides before stimulation
Source text: Informed consent was obtained from donors, patients and families of patients. The study and protocols conform to the 1975 declaration of Helsinki as well as to local legislation and ethical guidelines. Genomic DNA extracted from peripheral blood cells was used for whole exome sequencing (Illumina) and sequencing of CTPS1. PBMCs were Ficoll-purified and activated with phytohemagglutinin (PHA) for 3 days, and then cultured in RPMI medium supplemented with 5% type AB human serum and IL-2 (100 UI/ml). T-cell blasts were restimulated with various mitogens and analyzed for memory and activation markers, calcium flux, cytokine secretions, apoptosis and TCR-CD3 signaling cascade molecules by immunoblotting. CTPS1 protein was detected by immunoblotting with an antibody raised against residues in the middle of the protein (341 to 355) (#SAB111071, Sigma). […] Proliferation was assessed after 96 hours by monitoring the dilution of CellTrace violet dye labelling. Cell cycle was determined by measuring the incorporation of EdU into newly synthesized DNA during 40 hours. The division indexes were calculated with the Flowjo software (BD Biosciences). For gene silencing of CTPS1 by shRNA expression (Openbiosystems), cells were transduced at day 3 of PHA stimulation. For rescue experiments, CTPS1-deficient cells were transduced with a lentiviral vector (Invitrogen) containing the CTPS1 gene and proliferation was performed 5 days after transduction. In long-term expansions, cells were repeatedly stimulated with CD3/CD28-coated beads every 48 h and the transduced GFP^+ cells in the cultures were determined by every 24 h. The intracellular content of nucleotides was measured by liquid chromatography-mass spectrometry (UPLC-xevoTQS, Waters). P values were calculated by two-tailed Student's t-test using PRISM software (GraphPad).

Nc1ccn([C@@H]2O[C@H](COP(=O)(O)OP(=O)(O)OP(=O)(O)O)[C@@H](O)[C@H]2O)c(=O)n1 [CTP, cytidine nucleotide triphosphate]
reversion of the inhibition of T-cell proliferation by deazauridine [1]: fully reverted | CD25 expression of CTPS1-deficient cells [2]: recovered to a normal level | proliferation of CTPS1-deficient cells [2]: recovered to a normal level; also recorded: restored to normal level

Nc1ccn([C@@H]2O[C@H](CO)[C@@H](O)[C@H]2O)c(=O)n1 [cytidine]
CD25 expression of CTPS1-deficient cells [2]: recovered to a normal level | proliferation of CTPS1-deficient cells [2]: recovered to a normal level; also recorded: restored

O=c1ccn([C@@H]2O[C@H](COP(=O)(O)OP(=O)(O)OP(=O)(O)O)[C@@H](O)[C@H]2O)c(=O)[nH]1 [UTP]
reversion of the inhibition of T-cell proliferation by deazauridine [1]: partially
